ChEMBL document CHEMBL1144376, “Novel approach to pro-drugs of lactones: water soluble imidate and ortho-ester derivatives of a furanone-based COX-2 selective inhibitor” (Bioorg Med Chem Lett, 2005)

Experiments:
[1] = target: Prostaglandin G/H synthase 1 (Homo sapiens, UniProt P23219); assay: Inhibitory concentration against prostaglandin G/H synthase 1 of human whole blood
[2] = Plasma level measured at 30 min in sprague-dawley rat upon intravenous administration; assay type: ADME; conditions: read-out: Plasma level
[3] = Plasma level of compound 2 measured at 30 min in sprague-dawley rat after 2 mg/kg intravenous administration of compound; assay type: ADME, organism-based; set-up: dose 2 mg/kg, route intravenous; conditions: in vivo, 0.5 h, read-out: Plasma level
[4] = Plasma level measured at 30 min in sprague-dawley rat upon intravenous administration [dosed in PEG-400 solution]; assay type: ADME, organism-based; conditions: read-out: Plasma level

Sequence of Prostaglandin G/H synthase 1 (P23219 whole entry): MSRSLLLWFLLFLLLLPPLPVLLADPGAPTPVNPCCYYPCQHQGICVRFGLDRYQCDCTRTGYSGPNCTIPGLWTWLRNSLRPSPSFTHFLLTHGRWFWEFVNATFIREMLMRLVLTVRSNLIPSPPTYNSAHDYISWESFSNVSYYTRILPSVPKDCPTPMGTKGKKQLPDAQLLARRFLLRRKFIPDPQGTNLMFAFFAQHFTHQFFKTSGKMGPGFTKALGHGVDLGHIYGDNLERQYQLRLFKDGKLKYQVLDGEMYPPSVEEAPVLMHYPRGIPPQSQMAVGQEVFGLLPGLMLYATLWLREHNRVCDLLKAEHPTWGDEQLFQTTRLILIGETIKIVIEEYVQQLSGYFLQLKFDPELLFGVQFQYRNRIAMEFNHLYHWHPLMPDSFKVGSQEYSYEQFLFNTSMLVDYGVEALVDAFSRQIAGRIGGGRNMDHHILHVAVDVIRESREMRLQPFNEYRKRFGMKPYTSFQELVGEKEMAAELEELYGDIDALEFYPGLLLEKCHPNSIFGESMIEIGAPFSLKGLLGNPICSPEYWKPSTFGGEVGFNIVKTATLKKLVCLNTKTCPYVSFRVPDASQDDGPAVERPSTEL

Row | concentration [3] [nM] | Compound | other results
1 | 400 | CC[C@]1(C)OC2(OCC(COC(=O)CCC(=O)[O-])O2)C(OC(C)C)=C1c1ccc(S(C)(=O)=O)cc1.[Na+] (stereo partly specified) | concentration at 0.5 h [2]: < 100 nM
2 | 2800 | CC[C@]1(C)OC2(OCC(CO)O2)C(OC(C)C)=C1c1ccc(S(C)(=O)=O)cc1 (stereo partly specified) | concentration at 0.5 h [4]: 1400 nM
3 | 200 | CC[C@]1(C)OC2(OCC(COP(=O)([O-])OCC[N+](C)(C)C)O2)C(OC(C)C)=C1c1ccc(S(C)(=O)=O)cc1 (stereo partly specified) | concentration at 0.5 h [2]: 200 nM

Second part, the molecule before the results:

Row | Compound | concentration [3] [nM] | other results
4 | CC[C@]1(C)OC(=O)C(OC(C)C)=C1c1ccc(S(C)(=O)=O)cc1 | – | IC50 [1]: > 86 µM
5 | CC1(O)OC(=O)C(c2ccc(Cl)cc2)=C1c1ccc(S(C)(=O)=O)cc1 (stereo unspecified) | – | IC50 [1]: > 86 µM
6 | CC[C@]1(C)OC2(OCC(C3OC(=O)C(O)=C3O)O2)C(OC(C)C)=C1c1ccc(S(C)(=O)=O)cc1 (stereo partly specified) | 100 | –
7 | CC[C@]1(C)O/C(=N\[C@@H](CO)C(=O)O)C(OC(C)C)=C1c1ccc(S(C)(=O)=O)cc1 | < 100 | –
8 | CC[C@]1(C)O/C(=N\OCC(=O)O)C(OC(C)C)=C1c1ccc(S(C)(=O)=O)cc1 | < 100 | –
